The values below come from publication PMC8541017, “Potent and Selective Inhibitors of Human Monoamine Oxidase A from an Endogenous Lichen Fungus Diaporthe mahothocarpus” (Journal of Fungi, 2021).

Series [1] deals with T1, hMAO-A (Homo sapiens, UniProt P21397).
T1 sequence (P21397 1-527): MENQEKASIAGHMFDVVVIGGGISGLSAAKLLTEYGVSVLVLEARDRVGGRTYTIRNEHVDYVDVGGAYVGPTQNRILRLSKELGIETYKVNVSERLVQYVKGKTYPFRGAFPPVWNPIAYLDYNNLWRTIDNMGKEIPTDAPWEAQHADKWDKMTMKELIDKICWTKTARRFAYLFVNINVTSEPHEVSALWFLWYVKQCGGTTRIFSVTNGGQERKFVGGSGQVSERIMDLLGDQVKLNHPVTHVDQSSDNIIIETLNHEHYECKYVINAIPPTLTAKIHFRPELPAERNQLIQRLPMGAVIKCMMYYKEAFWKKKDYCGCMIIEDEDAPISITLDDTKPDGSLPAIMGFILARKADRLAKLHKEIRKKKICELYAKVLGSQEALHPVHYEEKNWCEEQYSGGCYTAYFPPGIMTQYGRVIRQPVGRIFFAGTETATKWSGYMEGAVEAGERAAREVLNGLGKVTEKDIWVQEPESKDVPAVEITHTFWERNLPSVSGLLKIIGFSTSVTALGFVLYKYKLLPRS
Kind of series: biochemical. The note with it: for inhibition type for hMAO-A: Lineweaver–Burk plot; for SI (selectivity index): hMAO-B/hMAO-A using IC50 values; for remaining activity at 2 µg/mL: read-out: Residual Activity at 2 µg/mL (%) hMAO-A; for Residual Activity (%) hMAO-A: 1-µM concentration (footnote a). The method, then: (§1) Human recombinant MAO-A and MAO-B were assayed in a reaction mixture of 0.5 mL containing 50 mM sodium phosphate buffer (pH 7.2) and the substrates (0.06 mM kynuramine for hMAO-A and 0.3 mM benzylamine for hMAO-B). […] [30, 31]. The reactions were started with the addition of substrates without preincubation of the enzyme and inhibitor.

In series [2] the target is T2, hMAO-B (Homo sapiens, UniProt P27338).
T2 sequence (P27338 1-520): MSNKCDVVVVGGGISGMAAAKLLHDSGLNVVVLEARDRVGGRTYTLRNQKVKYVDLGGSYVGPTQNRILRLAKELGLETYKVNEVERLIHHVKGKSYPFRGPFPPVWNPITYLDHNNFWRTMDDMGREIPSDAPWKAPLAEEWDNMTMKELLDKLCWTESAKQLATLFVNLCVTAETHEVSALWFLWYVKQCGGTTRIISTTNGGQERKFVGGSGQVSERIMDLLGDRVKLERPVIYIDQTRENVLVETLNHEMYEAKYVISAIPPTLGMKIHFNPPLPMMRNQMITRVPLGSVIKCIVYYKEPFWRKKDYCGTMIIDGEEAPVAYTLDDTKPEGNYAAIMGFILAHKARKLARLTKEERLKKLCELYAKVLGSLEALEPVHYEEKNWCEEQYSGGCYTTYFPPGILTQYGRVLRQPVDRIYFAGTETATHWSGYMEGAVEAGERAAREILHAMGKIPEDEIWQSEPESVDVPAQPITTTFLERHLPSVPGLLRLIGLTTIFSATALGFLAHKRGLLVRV
Kind of series: biochemical. The note with it: for Residual Activity (%) hMAO-B: 1-µM concentration (footnote a). The method, then: as §1

The target in series [3] is T3, AChE (Electrophorus electricus, UniProt O42275).
T3 construct: AChE from electric eel and BChE from horse serum were used; from tissue; host or cells: electric eel
T3 sequence (O42275 24-633): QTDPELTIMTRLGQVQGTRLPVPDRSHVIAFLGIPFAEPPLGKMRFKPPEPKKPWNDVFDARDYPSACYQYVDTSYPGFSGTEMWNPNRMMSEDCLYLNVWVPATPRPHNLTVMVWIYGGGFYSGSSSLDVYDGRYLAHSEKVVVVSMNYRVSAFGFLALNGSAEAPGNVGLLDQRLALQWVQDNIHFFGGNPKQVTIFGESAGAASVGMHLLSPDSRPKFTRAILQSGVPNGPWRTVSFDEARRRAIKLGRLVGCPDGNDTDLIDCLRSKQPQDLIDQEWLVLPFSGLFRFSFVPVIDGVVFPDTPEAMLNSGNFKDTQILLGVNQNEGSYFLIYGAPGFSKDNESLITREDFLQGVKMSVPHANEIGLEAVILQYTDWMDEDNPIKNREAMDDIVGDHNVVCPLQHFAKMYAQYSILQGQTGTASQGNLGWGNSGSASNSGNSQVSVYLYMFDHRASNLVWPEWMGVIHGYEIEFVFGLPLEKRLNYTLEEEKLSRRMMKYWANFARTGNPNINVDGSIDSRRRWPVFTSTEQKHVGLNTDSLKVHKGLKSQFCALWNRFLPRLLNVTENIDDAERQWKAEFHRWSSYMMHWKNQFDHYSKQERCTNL
As to the kind of experiment: biochemical. The note with it: for remaining activity at 10 µM: read-out: Residual Activity at 10 µM (%) AChE. Also on record: species or system electric eel.

The target of series [4] is T4, BChE (Equus caballus, UniProt P81908).
T4 construct: from tissue; host or cells: horse serum
T4 sequence (P81908 whole entry): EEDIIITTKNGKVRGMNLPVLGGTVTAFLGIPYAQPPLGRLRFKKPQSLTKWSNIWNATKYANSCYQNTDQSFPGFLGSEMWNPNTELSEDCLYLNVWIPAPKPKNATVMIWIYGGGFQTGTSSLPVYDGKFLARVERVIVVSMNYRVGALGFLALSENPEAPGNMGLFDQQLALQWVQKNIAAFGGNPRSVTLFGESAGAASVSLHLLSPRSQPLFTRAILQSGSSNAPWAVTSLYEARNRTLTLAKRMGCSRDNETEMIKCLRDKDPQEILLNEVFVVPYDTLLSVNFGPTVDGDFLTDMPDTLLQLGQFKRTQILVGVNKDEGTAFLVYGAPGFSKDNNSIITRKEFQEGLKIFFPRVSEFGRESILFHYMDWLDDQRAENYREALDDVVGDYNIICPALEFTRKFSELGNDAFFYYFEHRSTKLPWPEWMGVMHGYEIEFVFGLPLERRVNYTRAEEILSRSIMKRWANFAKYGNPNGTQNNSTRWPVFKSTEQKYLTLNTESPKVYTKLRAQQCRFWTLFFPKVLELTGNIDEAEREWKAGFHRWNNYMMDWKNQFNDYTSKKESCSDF
Kind of series: biochemical. Set-up: species or system horse. The note with it: read-out: Residual Activity at 10 µM (%) BChE. The method, then: AChE from electric eel and BChE from horse serum were used for cholinesterases and assayed with a slight modification of the Ellman method. Shortly, after pre-incubating the enzyme and inhibitor for 15 min in 100 mM of sodium phosphate buffer (pH 7.5), 0.5 mM acetylthiocholine iodide (ATCI) or butyrylthiocholine iodide (BTCI) was added as a substrate for AChE or BChE assay, respectively. Then, 0.5 mM 5,5-dithiobis (2-nitrobenzoic acid) (DTNB) was added for color development for a final volume of 0.5 mL. Enzyme activity was measured for 15 min at room temperature in a kinetic mode at 412 nm.

Series [5] deals with T1, hMAO-A. The format is biochemical. The note with it: for reversibility of hMAO-A inhibition: recovery test after dialysis; for residual hMAO-A activity after dialysis / residual hMAO-A activity before dialysis: ~2 × IC50: AT 0.040 µM, HAT 0.60 µM, MED 18.0 µM, toloxatone 2.0 µM, clorgyline 0.014 µM.
In series [6] the target is BACE1 (Homo sapiens, UniProt P56817). As to the kind of experiment: BACE1 activity assay (fluorescence kit). The note with it: for IC50: IC50 BACE1; for remaining activity at 10 µM: read-out: Residual Activity at 10 µM (%) BACE1.
Sequence of BACE1 (P56817 46-501): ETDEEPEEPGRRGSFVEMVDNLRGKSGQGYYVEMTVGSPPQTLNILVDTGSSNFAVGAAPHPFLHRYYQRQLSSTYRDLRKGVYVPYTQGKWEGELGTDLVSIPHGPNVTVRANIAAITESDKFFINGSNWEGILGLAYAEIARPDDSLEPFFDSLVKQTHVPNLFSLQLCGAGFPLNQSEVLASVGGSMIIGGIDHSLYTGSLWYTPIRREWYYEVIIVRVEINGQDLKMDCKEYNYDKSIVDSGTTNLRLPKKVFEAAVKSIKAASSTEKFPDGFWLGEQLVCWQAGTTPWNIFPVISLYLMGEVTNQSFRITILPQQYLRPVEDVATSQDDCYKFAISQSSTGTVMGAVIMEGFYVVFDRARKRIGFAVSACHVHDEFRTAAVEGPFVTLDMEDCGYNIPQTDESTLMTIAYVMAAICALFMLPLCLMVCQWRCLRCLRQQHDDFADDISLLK
Method: Assays for inhibitory activities of compounds against hMAO-A, hMAO-B, AChE, BChE, and BACE1 were performed at 10-µM concentration of inhibitor.
The test system of series [7] is topoisomerase II. The note with it: cited from earlier work.
Series [8] concerns MAO. The note with it: read-out: IC50 MAO inhibitory activity; cited from earlier work.
The target in series [9] is T1, hMAO-A. The note with it: cited from earlier work.
In series [10] the target is T2, hMAO-B. Also on record: method as in PMID 33530616. The note with it: cited from earlier work.

Where “and” joins values, the source holds several entries; their conditions need not be identical. Equal values may be shown once. Read-outs that look alike come from different tables or passages of the source.

The Ki is a measure of affinity in units of concentration, obtained from inhibition or displacement. For orientation: IC50 means the concentration at which inhibition is half-maximal. For `CC(=O)O[C@H]1C=CC(=O)O[C@H]1[C@@H]1[C@H](C)[C@H]2C=CC=C[C@@H]1O2` [MED, mycoepoxydiene], the “inhibition type for hMAO-A” value in series [1] is on record as “reversible competitive inhibitors”. The Ki in [1] (Lineweaver–Burk secondary plot, read-out: Ki hMAO-A) is 3.76 µM. The “SI (selectivity index)” value in series [1] is reported as above 4.59. In addition, the remaining activity at 2 µg/mL in series [1] (isolated compounds from ELF29, 2 µg/mL) is 66.7 ± 1.84%. The 50% inhibitory concentration (IC50) in [1] (read-out: IC50 hMAO-A) is 8.68 µM and 8.7 µM; in series [2] (read-out: IC50 hMAO-B) it was above 40 µM; in [3] (read-out: IC50 AChE), 18.6 ± 1.3 µM; in series [6], 35.9 ± 0.3 µM. Besides, the remaining activity at 10 µM in series [1] (read-out: Residual Activity at 10 µM (%) hMAO-A) was 42.7 ± 0.9%; in series [2] (read-out: Residual Activity at 10 µM (%) hMAO-B), 85.4 ± 6.9%; in series [3] it was 65.2 ± 2.7%; in [4] it was 95.5 ± 5.5%; in series [6], 80.5 ± 2.7%. Also, in series [5], the “reversibility of hMAO-A inhibition” value is “reversible inhibitors”. Also, in [5], the “residual hMAO-A activity after dialysis” value turned out to be 83.7%. The “residual hMAO-A activity before dialysis” value in [5] is 28.7%.

In the case of `Cc1cc(O)cc2oc(=O)c3c(O)cc(O)cc3c12` [AT, alternariol], in series [1], the Ki was 0.0075 µM, the “times higher hMAO-A inhibitory activity than toloxatone” value is 54.0 times, the “Residual Activity (%) hMAO-A” value is given as −3.1 ± 0.0% and the “inhibition type for hMAO-A” value is “reversible competitive inhibitors”. For the same molecule, in series [1], the “SI (selectivity index)” value is 1035 and the remaining activity at 2 µg/mL is -5.41 ± 0.98%. This molecule yielded an IC50 in series [1] (IC50 hMAO-A) of 0.02 ± 0.001 µM. Further, in series [2], the IC50 came to 20.7 ± 2.2 µM and the “Residual Activity (%) hMAO-B” value is 75.6 ± 2.3%. Further, in [3], inhibition was half-maximal at 10 ± 0.9 µM (IC50) and the remaining activity at 10 µM amounted to 58.7 ± 2%. In addition, the remaining activity at 10 µM in series [4] worked out at 93.3 ± 4.1%. In [5], the “reversibility of hMAO-A inhibition” value is “reversible inhibitors”, the “residual hMAO-A activity after dialysis” value was found to be 60.5% and the “residual hMAO-A activity before dialysis” value is 33.5%. The “concentration at which ROS formation and topoisomerase II interaction relate to toxicity” value in series [7] is reported as above 10 µM. In [6], the 50% inhibitory concentration (IC50) amounted to 36.7 ± 3.3 µM and the remaining activity at 10 µM was 80.9 ± 0.2%.

With `CCCCCC(=O)c1c(O)cc2c(c1O)C(=O)c1c(O)cc(OC)cc1C2=O` [solorinic acid], the IC50 in series [8] is 14.3 µM.

In the case of `Cc1c(O)c(O)cc2oc(=O)c3c(O)cc(O)cc3c12` [HAT, 5′-hydroxy-alternariol], in series [1], the affinity corresponds to a Ki of 0.116 µM, the “times higher hMAO-A inhibitory activity than toloxatone” value was determined as 3.5 times, the “Residual Activity (%) hMAO-A” value is reported as 17.7 ± 1.1% and the “inhibition type for hMAO-A” value was “reversible competitive inhibitors”. In addition, in series [1], the “SI (selectivity index)” value is listed as above 129 and the remaining activity at 2 µg/mL is 3.39 ± 3.43%. In addition, inhibition in series [1] (IC50 hMAO-A) was half-maximal at 0.31 ± 0.02 µM (IC50). In addition, in series [1] (ratio of IC50 values), the “times effective against hMAO-A than alternariol monomethyl ether” value is on record as 5.5 times. In [2], the IC50 was above 40 µM and the “Residual Activity (%) hMAO-B” value amounted to 83.3 ± 4.0%. In series [3], inhibition was half-maximal at 19.9 ± 0.2 µM (IC50) and the remaining activity at 10 µM is 65.6 ± 3.8%. For the same molecule, in series [4], the remaining activity at 10 µM came to 96.2 ± 2.3%. For the same molecule, in series [5], the “reversibility of hMAO-A inhibition” value is listed as “reversible inhibitors”, the “residual hMAO-A activity after dialysis” value is listed as 79.4% and the “residual hMAO-A activity before dialysis” value stood at 42.1%. For the same molecule, in [6], the IC50 is 24.7 µM and the remaining activity at 10 µM turned out to be 71.3 ± 3.8%.

As to `CC1CC(=O)c2c(O)cccc2O1` (centres unmarked) [hydroxy-2-methyl-chroman-4-one], the IC50 in [9] was 14 µM; in series [10], 3.23 µM.

For `COc1cc(O)c2c(=O)oc3cc(O)cc(C)c3c2c1` [alternariol monomethyl ether], the IC50 in [9] was 1.71 µM.
